{"source": "patent US12338203B2", "about": "(TAISHO PHARMACEUTICAL CO., LTD., priority 2019, dated 2025)", "data": [{"target": "T1, human LPAR1 (Homo sapiens, UniProt Q92633)", "T1 construct": "expressed in transfected cells", "T1 sequence (Q92633 whole entry)": "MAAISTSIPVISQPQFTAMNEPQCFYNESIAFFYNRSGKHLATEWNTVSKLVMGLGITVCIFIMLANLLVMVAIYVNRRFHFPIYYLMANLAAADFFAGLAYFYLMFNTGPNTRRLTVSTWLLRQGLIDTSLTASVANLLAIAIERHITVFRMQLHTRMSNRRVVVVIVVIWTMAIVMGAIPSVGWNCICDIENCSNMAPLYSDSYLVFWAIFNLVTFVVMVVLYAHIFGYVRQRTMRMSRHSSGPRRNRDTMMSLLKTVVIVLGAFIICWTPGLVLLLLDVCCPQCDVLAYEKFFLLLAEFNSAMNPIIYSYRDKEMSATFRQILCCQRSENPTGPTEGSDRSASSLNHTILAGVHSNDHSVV", "assay": "Test Example 1: antagonism against response of LPA-induced increase in intracellular Ca2+ concentration in RH7777 cells stably expressing human LPAR1", "format": "cell-based", "settings": "RH7777 cells stably expressing human LPAR1; Fluo-4 fluorescence, FDSS6000; read-out: IC50 value (concentration producing 50% antagonism against response of LPA-induced increase in intracellular Ca2+ concentration) (converted)", "how_it_was_run": "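Ca2+ flux read at 540 nm emission (480 nm excitation) after LPA addition to human LPAR1-expressing RH7777 cells exposed to compound for 30 min, 37 °C, pH 7.4 HEPES-buffered HBSS. Response relative to no-compound control after basal subtraction; IC50 fitted from concentration–response.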", "units": {"IC50": "nM"}, "values": [{"compound": "CCOc1cc([C@@H](C)N(CCCCc2ccccc2)C(=O)NC2(c3nnn[nH]3)CC(F)(F)C2)cc(OCC)c1C(C)O", "note": "(stereo partly drawn) [Example 10-9, N-{(1R)-1-[3,5-Diethoxy-4-(1-Hydroxyethyl)Phenyl]Ethyl}-N′-[3,3-Difluoro-1-(1H-Tetrazol-5-Yl)Cyclobutyl]-N-(4-Phenylbutyl) Urea]", "IC50": 4.69}, {"compound": "CCOc1cc([C@@H](C)N(CCCCc2ccccc2)C(=O)NC2(c3nn[nH]n3)CC(F)(F)C2)c(Cl)c(OCC)c1C(C)O", "note": "(some centres unmarked) [Example 10-10]", "IC50": 7.08}, {"compound": "CCOc1cc([C@@H](C)N(CCCCc2ccccc2)C(=O)NC2(c3nn[nH]n3)CC(F)(F)C2)c(Cl)c(OCC)c1C(C)O", "note": "(some centres unmarked) [Example 10-11]", "IC50": 8.1}, {"compound": "CCOc1cc(C(C)N(CCC(F)(F)Cc2ccccc2)C(=O)NC2(c3nn[nH]n3)CC(F)(F)C2)c(Cl)c(OCC)c1C(C)=O", "note": "(centres unmarked) [Example 10-12]", "IC50": 21.5}, {"compound": "CCOc1cc(C(C)N(CCOCc2ccccc2)C(=O)NC2(c3nn[nH]n3)CC(F)(F)C2)cc(OCC)c1C1CC1", "note": "(centres unmarked) [Example 10-13]", "IC50": 3.17}, {"compound": "CCOc1cc(C(C)N(CCCCc2ccccc2)C(=O)NC2(c3nn[nH]n3)CC(OC)C2)cc(OCC)c1C(C)=O", "note": "(centres unmarked) [Example 10-14]", "IC50": 5.08}, {"compound": "CCOc1cc(C(C)N(CCOC(C)c2ccccc2)C(=O)NC2(c3nn[nH]n3)CC(OC)C2)cc(OCC)c1C1CC1", "note": "(centres unmarked) [Example 10-15]", "IC50": 2.38}, {"compound": "CCOc1cc(C(C)N(CCOC(C)c2ccccc2)C(=O)NC2(c3nn[nH]n3)CC(OC)C2)cc(OCC)c1C(C)=O", "note": "(centres unmarked) [Example 10-16]", "IC50": 4.86}, {"compound": "CCOc1cc(C(C)N(CCOC(C)c2ccccc2)C(=O)N[C@]2(c3nn[nH]n3)C[C@@H](OC)C2)cc(OCC)c1C(C)O", "note": "(some centres unmarked) [Example 10-17]", "IC50": 16.7}, {"compound": "CCOc1cc(C(C)N(CCCCc2ccccc2)C(=O)NC2(c3nn[nH]n3)CCCC2)cc(OCC)c1C", "note": "(centres unmarked) [Example 10-18]", "IC50": 38.4}, {"compound": "Trans-1-[([(1R)-1-(4-Acetyl-2,6-Dichloro-3,5-Diethoxyphenyl)Ethyl]{2-[(1S)-1-Phenylethoxy]Ethyl}Carbamoyl)Amino]-3-Ethoxycyclobutane-1-Carboxylic Acid [Example 5-120]", "IC50": 11.1}]}]}
